In the kinase profiling compilation of Christmann-Franck et al. (2016):

Tests used:
Experiment in all cases: radiometric filter-binding kinase assay, Kinaseprofiler
[1] = tested on: AKT2 (human), P31751 [S474D]; details: ATP 200 µM
[2] = tested on: AURKA (human), O14965 [I31F]; details: ATP 15 µM
[3] = tested on: MAPKAPK2 (human), P49137 [A399G]; details: ATP 90 µM
[4] = tested on: MARK1 (human), Q9P0L2 [V16E/T20S]; details: ATP 10 µM
[5] = tested on: MERTK (human), Q12866 [H628Q/R794A]; details: ATP 45 µM
Chain of MERTK (human), Q12866 [H628Q/R794A] (Q12866 whole entry, looked up, stated change not applied): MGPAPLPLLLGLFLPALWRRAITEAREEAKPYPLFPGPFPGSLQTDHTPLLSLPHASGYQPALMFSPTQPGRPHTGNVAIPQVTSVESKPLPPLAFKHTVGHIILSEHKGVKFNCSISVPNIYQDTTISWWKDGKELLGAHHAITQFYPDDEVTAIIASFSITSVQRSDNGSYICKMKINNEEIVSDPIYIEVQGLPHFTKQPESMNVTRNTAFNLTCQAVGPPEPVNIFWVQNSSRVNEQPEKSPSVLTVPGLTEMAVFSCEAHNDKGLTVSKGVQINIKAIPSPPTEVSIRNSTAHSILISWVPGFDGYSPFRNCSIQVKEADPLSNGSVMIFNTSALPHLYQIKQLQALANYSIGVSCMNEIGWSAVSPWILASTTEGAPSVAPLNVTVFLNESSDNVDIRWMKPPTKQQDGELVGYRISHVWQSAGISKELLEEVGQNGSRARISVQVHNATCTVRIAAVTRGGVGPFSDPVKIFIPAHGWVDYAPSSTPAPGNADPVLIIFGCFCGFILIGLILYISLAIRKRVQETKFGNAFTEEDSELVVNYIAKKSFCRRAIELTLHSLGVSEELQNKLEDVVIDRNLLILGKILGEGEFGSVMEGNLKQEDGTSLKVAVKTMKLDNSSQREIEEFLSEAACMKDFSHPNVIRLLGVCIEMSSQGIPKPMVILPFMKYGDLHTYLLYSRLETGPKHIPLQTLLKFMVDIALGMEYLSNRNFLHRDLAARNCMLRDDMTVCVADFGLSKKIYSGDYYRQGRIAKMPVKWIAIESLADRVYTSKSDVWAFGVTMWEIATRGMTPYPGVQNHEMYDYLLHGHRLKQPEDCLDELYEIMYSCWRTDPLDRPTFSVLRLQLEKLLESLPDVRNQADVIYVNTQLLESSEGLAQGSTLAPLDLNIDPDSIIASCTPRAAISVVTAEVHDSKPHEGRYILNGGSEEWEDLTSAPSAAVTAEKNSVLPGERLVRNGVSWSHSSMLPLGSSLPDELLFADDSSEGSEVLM

[6] = tested on: PRKCH (human), P24723 [V108L/G109R/L392Q]; details: ATP 45 µM
Chain of PRKCH (human), P24723 [V108L/G109R/L392Q] (P24723 whole entry, looked up, stated change not applied): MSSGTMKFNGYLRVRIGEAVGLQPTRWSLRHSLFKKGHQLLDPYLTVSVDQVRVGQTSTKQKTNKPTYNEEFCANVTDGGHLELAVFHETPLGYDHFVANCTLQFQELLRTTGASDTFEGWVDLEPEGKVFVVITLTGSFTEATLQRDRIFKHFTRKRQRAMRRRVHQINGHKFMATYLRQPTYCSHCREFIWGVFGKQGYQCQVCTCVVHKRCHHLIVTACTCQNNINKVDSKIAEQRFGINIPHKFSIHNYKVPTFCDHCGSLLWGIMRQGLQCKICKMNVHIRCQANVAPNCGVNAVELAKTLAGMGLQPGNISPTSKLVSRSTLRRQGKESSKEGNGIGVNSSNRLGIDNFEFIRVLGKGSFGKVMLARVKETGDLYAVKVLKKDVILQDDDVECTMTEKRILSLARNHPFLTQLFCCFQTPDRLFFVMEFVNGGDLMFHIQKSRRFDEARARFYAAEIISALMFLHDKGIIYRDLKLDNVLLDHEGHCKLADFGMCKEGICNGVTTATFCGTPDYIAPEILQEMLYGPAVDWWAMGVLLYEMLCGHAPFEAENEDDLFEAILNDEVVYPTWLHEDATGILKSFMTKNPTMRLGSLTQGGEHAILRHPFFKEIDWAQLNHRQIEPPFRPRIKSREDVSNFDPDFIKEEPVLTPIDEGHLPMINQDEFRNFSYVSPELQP

[7] = tested on: RAF1 (human), P04049 [Y340D/Y341D]; details: ATP 45 µM
[8] = tested on: TEC (human), P42680 [F514V]; details: ATP 120 µM
Chain of TEC (human), P42680 [F514V] (P42680 whole entry, looked up, stated change not applied): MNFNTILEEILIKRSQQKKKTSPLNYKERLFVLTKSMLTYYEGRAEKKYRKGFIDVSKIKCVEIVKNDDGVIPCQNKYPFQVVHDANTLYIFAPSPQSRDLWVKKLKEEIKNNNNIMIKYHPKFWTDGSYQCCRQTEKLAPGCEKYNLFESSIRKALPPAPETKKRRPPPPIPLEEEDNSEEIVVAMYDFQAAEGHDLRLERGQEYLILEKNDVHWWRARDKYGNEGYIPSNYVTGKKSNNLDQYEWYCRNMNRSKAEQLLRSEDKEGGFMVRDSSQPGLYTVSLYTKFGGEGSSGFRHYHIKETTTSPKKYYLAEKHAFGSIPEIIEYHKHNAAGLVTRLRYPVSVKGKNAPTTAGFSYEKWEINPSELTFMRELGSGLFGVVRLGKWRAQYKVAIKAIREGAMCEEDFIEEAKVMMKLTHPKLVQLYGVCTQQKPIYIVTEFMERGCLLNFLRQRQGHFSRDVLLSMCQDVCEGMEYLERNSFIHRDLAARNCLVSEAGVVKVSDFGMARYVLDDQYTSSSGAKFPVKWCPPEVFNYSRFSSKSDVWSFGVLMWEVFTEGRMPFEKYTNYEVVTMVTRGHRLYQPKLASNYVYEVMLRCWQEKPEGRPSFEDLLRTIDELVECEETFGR

Chain of AURKA (human), O14965 [I31F] (O14965 whole entry, looked up, stated change not applied): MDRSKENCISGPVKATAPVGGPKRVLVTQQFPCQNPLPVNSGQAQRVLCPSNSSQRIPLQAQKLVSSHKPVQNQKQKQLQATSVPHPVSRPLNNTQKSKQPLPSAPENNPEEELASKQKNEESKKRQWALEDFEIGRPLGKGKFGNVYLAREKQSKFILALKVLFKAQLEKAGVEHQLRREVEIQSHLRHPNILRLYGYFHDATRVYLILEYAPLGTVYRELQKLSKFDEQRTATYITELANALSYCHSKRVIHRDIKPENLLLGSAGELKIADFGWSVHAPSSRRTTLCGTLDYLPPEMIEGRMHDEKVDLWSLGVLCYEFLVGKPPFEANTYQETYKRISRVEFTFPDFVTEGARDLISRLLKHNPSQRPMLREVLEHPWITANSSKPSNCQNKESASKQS
Chain of MAPKAPK2 (human), P49137 [A399G] (P49137 whole entry A399G, looked up): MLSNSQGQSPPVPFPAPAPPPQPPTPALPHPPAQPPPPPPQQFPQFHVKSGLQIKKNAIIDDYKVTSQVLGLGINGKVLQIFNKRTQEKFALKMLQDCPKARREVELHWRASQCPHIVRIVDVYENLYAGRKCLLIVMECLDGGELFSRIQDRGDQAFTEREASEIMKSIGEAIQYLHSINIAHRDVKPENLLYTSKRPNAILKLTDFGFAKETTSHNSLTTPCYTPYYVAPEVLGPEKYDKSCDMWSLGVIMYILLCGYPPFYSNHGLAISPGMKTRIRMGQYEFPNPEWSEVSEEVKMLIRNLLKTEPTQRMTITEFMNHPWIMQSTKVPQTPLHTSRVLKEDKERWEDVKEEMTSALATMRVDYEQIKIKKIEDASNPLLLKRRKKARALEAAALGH
Chain of MARK1 (human), Q9P0L2 [V16E/T20S] (Q9P0L2 whole entry, looked up, stated change not applied): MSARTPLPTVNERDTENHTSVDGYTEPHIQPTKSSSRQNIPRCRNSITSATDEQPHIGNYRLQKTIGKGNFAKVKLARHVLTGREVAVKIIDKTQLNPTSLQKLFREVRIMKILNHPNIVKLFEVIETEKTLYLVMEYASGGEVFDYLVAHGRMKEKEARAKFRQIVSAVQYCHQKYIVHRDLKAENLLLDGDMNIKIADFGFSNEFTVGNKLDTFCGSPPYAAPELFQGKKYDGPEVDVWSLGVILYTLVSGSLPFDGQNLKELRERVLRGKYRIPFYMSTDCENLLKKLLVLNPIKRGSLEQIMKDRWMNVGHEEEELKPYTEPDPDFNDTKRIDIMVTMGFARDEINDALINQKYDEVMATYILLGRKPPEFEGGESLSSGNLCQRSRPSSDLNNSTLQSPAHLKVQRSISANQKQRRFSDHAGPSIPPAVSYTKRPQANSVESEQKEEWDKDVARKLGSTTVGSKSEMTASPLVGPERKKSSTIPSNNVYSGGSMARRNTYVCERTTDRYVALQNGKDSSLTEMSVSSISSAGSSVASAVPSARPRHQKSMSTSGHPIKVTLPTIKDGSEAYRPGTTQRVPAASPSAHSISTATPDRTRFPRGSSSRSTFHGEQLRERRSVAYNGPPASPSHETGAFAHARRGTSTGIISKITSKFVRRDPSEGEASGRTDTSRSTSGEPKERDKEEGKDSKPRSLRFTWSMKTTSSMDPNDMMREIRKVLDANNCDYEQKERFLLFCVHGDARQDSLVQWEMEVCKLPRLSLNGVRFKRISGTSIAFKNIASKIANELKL
Chain of AKT2 (human), P31751 [S474D] (P31751 whole entry S474D, looked up): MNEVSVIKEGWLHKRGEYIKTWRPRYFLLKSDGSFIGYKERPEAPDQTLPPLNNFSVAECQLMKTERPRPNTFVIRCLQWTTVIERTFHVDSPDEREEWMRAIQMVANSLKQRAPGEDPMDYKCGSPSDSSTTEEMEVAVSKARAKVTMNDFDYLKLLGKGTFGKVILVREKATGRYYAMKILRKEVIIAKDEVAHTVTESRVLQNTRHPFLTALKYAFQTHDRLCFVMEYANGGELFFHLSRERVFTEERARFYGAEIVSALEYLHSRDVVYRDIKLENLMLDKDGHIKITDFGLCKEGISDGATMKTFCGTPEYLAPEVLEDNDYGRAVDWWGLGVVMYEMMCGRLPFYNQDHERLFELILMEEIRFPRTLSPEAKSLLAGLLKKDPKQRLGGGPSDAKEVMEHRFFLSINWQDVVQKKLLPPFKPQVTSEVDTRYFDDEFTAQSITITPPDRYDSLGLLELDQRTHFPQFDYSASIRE

SMILES | residual activity ([1]; compound 1.0 µM) [%] | residual activity ([1]; compound 10.0 µM) [%] | residual activity ([2]; compound 1.0 µM) [%] | residual activity ([2]; compound 10.0 µM) [%] | residual activity ([3]; compound 1.0 µM) [%] | residual activity ([3]; compound 10.0 µM) [%] | residual activity ([4]; compound 1.0 µM) [%] | residual activity ([4]; compound 10.0 µM) [%] | residual activity ([5]; compound 1.0 µM) [%] | residual activity ([5]; compound 10.0 µM) [%] | residual activity ([6]; compound 1.0 µM) [%] | residual activity ([6]; compound 10.0 µM) [%] | residual activity ([7]; compound 1.0 µM) [%] | residual activity ([7]; compound 10.0 µM) [%] | residual activity ([8]; compound 1.0 µM) [%] | residual activity ([8]; compound 10.0 µM) [%]
O=C1c2ccccc2-c2n[nH]c3cccc1c23 | 104 | 105 | 19 | 2 | 79 | 69 | 38 | 6 | 22 | 9 | 86 | 82 | 69 | 61 | 89 | 57
COC(=O)[C@]1(O)C[C@@H]2O[C@@]1(C)n1c3ccccc3c3c4c(c5c6ccccc6n2c5c31)C(=O)NC4 |  |  |  | -1 | 0 | -6 | 0 | 0 |  | 0 |  |  |  |  |  | 
CN[C@@H]1C[C@H]2O[C@@](C)([C@@H]1OC)n1c3ccccc3c3c4c(c5c6ccccc6n2c5c31)C(=O)NC4 |  |  |  |  |  |  | 0 |  |  | 0 |  |  |  | 80 |  | 
O=C1Nc2ccccc2/C1=C1\Nc2ccccc2\C1=N/O | 98 | 92 | 7 | 0 | 101 | 76 | 37 | 5 | -2 | -3 | 91 | 83 | 89 | 66 | 64 | 22
